# Experimental data published in patent EP4389746A2, “P2X3 RECEPTOR ANTAGONISTS” (Recordati Industria Chimica E Farmaceutica SPA, priority 2022, dated 2024).
# Target: T1, human P2X3 receptor (Homo sapiens, UniProt P56373)
# T1 construct: expressed in transfected cells; host or cells: CHO-K1
# T1 sequence (P56373 1-397): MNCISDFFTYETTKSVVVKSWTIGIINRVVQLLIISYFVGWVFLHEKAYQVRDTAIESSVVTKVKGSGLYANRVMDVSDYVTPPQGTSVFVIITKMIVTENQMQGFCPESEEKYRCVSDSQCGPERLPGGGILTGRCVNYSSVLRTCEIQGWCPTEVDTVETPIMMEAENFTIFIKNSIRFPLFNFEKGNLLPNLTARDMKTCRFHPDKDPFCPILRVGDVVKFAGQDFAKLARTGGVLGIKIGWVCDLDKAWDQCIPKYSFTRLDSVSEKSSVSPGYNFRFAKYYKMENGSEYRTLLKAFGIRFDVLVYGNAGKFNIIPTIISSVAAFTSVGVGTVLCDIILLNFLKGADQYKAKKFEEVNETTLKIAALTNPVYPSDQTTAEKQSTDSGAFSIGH
# Test: Calcium luminescence measurement: human P2X3 receptor activity inhibition (CHO-K1 cells, photoprotein readout, FLEXSTATION)
# Format: cell-based
# Settings: CHO-K1 cells co-expressing human P2X3 and Ca2+ sensitive photoprotein; agonist α,β-Met-ATP; read-out: h-P2X3 IC50
compound,measurement,value
"CC(C)C1C(=O)N=C2c3ncc(N4CCOCC4)cc3N(Cc3ccc(Cl)cc3)C(=O)N21 (racemic) [Example 22, 6-[(4-Chlorophenyl)methyl]-8-(morpholin-4-yl)-3-(propan-2-yl)imidazo[1,2-c]pyrido[2,3-e]pyrimidine-2,5(3H,6H)-dione]",IC50,36.8 nM
